System: yeast genes (level of expressed mRNA)
Test: DNA chip analysis of expressed mRNA of yeast genes after 2 h culture with a toxic chemical substance
Type: cell-based, Saccharomyces cerevisiae S288C
Details: for The level of expressed mRNA in the presence of chemical substance/ (ratio to absence): transport facilitation protein gene; for The level of expressed mRNA in the presence of chemical substance/: ratio to no chemical; for The level of expressed mRNA in the presence of chemical substance/ (ratio to absence of chemical substance): stress protein genes, DNA chip
Summary of the method: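 S. cerevisiae S288C grown at 25° C in YPD; toxicant added at log phase at growth-inhibitory, non-lethal levels for 2 h, untreated cells as control. Poly(A) mRNA reverse-transcribed with Cy3/Cy5-dUTP, hybridized to whole-genome chip at 65° C >12 h; value is fluorescence ratio versus untreated.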

## sodium dodecylbenzosulfonate [(17)]
Yeast gene YDR313C
  The level of expressed mRNA in the presence of chemical substance/in the absence of chemical substance: 1.1
Yeast gene YDR315C
  The level of expressed mRNA in the presence of chemical substance/The level of expressed mRNA in the absence of chemical substance: 1.2
Yeast gene YDR342C
  The level of expressed mRNA in the presence of chemical substance/ (ratio to absence): 1.0
Yeast gene YDR343C
  The level of expressed mRNA in the presence of chemical substance/ (ratio to absence): 1.1
Yeast gene YDR350C
  The level of expressed mRNA in the presence of chemical substance/: 1.4
Yeast gene YDR358W
  The level of expressed mRNA in the presence of chemical substance/The level of expressed mRNA in the absence of chemical substance: 1.9
Yeast gene YDR368W
  The level of expressed mRNA in the presence of chemical substance/in the absence of chemical substance: 1.1
Yeast gene YDR374C
  The level of expressed mRNA in the presence of chemical substance/: 1.0
Yeast gene YDR377W, mitochondria-located protein genes, 2 h culture with chemical
  The level of expressed mRNA in the presence of chemical substance/ (ratio to absence), gene YDR377W: 1.2
Yeast gene YDR387C, ratio of DNA chip fluorescence intensity to that without chemical substance
  The level of expressed mRNA in the presence of chemical substance/ (in its absence), gene YDR387C: 1.2
Yeast gene YDR388W
  The level of expressed mRNA in the presence of chemical substance/The level of expressed mRNA in the absence of chemical substance: 1.2
Yeast gene YDR432W
  The level of expressed mRNA in the presence of chemical substance/The level of expressed mRNA in the absence of chemical substance: 0.7
Yeast gene YDR481C
  The level of expressed mRNA in the presence of chemical substance/The level of expressed mRNA in the absence of chemical substance: 1.2
Yeast gene YDR494W
  The level of expressed mRNA in the presence of chemical substance/: 1.1
Yeast gene YDR497C
  The level of expressed mRNA in the presence of chemical substance/in the absence of chemical substance: 1.6
  The level of expressed mRNA in the presence of chemical substance/ (ratio to absence): 1.6
Yeast gene YDR510W
  The level of expressed mRNA in the presence of chemical substance/The level of expressed mRNA in the absence of chemical substance: 1.1
Yeast gene YDR512C
  The level of expressed mRNA in the presence of chemical substance/: 1.3
Yeast gene YDR516C
  The level of expressed mRNA in the presence of chemical substance/in the absence of chemical substance: 1.1
Yeast gene YDR531W
  The level of expressed mRNA in the presence of chemical substance/: 1.5
Yeast gene YEL027W
  The level of expressed mRNA in the presence of chemical substance/ (ratio to absence): 1.0
Yeast gene YEL039C
  The level of expressed mRNA in the presence of chemical substance/ (ratio to absence of chemical substance): 0.7
Yeast gene YEL041W
  The level of expressed mRNA in the presence of chemical substance/: 1.5
Yeast gene YEL042W
  The level of expressed mRNA in the presence of chemical substance/The level of expressed mRNA in the absence of chemical substance: 0.7
Yeast gene YEL065W
  The level of expressed mRNA in the presence of chemical substance/ (ratio to absence): 0.7
Yeast gene YEL066W
  The level of expressed mRNA in the presence of chemical substance/The level of expressed mRNA in the absence of chemical substance: 1.0
Yeast gene YEL072W
  The level of expressed mRNA in the presence of chemical substance/: 0.8
Yeast gene YER015W, ratio of DNA chip fluorescence intensity to that without chemical substance
  The level of expressed mRNA in the presence of chemical substance/ (in its absence), gene YER015W: 1.6
Yeast gene YER039C
  The level of expressed mRNA in the presence of chemical substance/The level of expressed mRNA in the absence of chemical substance: 1.7
Yeast gene YER045C
  The level of expressed mRNA in the presence of chemical substance/: 1.1
Yeast gene YER053C
  The level of expressed mRNA in the presence of chemical substance/in the absence of chemical substance: 1.2
  The level of expressed mRNA in the presence of chemical substance/ (ratio to absence): 1.2
Yeast gene YER057C
  The level of expressed mRNA in the presence of chemical substance/ (ratio to absence of chemical substance): 1.1
Yeast gene YER091C
  The level of expressed mRNA in the presence of chemical substance/in the absence of chemical substance: 1.2
Yeast gene YER096W
  The level of expressed mRNA in the presence of chemical substance/in the absence of chemical substance: 1.0
Yeast gene YER107C
  The level of expressed mRNA in the presence of chemical substance/The level of expressed mRNA in the absence of chemical substance: 1.1
Yeast gene YER119C
  The level of expressed mRNA in the presence of chemical substance/ (ratio to absence): 1.0
Yeast gene YER124C
  The level of expressed mRNA in the presence of chemical substance/: 0.9
Yeast gene YER130C
  The level of expressed mRNA in the presence of chemical substance/The level of expressed mRNA in the absence of chemical substance: 3.0
Yeast gene YER178W
  The level of expressed mRNA in the presence of chemical substance/in the absence of chemical substance: 1.1
Yeast gene YER181C
  The level of expressed mRNA in the presence of chemical substance/: 0.7
Yeast gene YFL014W
  The level of expressed mRNA in the presence of chemical substance/in the absence of chemical substance: 1.5
Yeast gene YFL028C
  The level of expressed mRNA in the presence of chemical substance/The level of expressed mRNA in the absence of chemical substance: 1.2
Yeast gene YFL030W
  The level of expressed mRNA in the presence of chemical substance/in the absence of chemical substance: 1.0
Yeast gene YFL031W
  The level of expressed mRNA in the presence of chemical substance/in the absence of chemical substance: 1.2
Yeast gene YFL041W
  The level of expressed mRNA in the presence of chemical substance/ (ratio to absence): 1.1
Yeast gene YFL043C
  The level of expressed mRNA in the presence of chemical substance/The level of expressed mRNA in the absence of chemical substance: 1.5
Yeast gene YFL054C
  The level of expressed mRNA in the presence of chemical substance/ (ratio to absence): 1.7
Yeast gene YFL055W
  The level of expressed mRNA in the presence of chemical substance/ (ratio to absence): 1.4
Yeast gene YFL056C
  The level of expressed mRNA in the presence of chemical substance/in the absence of chemical substance: 1.0
Yeast gene YFL057C
  The level of expressed mRNA in the presence of chemical substance/in the absence of chemical substance: 1.6
Yeast gene YFL061W
  The level of expressed mRNA in the presence of chemical substance/in the absence of chemical substance: 1.2
Yeast gene YFR017C
  The level of expressed mRNA in the presence of chemical substance/: 0.9
Yeast gene YFR042W
  The level of expressed mRNA in the presence of chemical substance/: 1.7
Yeast gene YFR045W
  The level of expressed mRNA in the presence of chemical substance/ (ratio to absence): 0.9
Yeast gene YFR046C
  The level of expressed mRNA in the presence of chemical substance/: 1.2
Yeast gene YFR047C
  The level of expressed mRNA in the presence of chemical substance/in the absence of chemical substance: 1.5
Yeast gene YFR053C
  The level of expressed mRNA in the presence of chemical substance/in the absence of chemical substance: 1.4
Yeast gene YGL008C
  The level of expressed mRNA in the presence of chemical substance/ (ratio to absence): 1.1
Yeast gene YGL035C, ratio of DNA chip fluorescence intensity to that without chemical substance
  The level of expressed mRNA in the presence of chemical substance/ (in its absence), gene YGL035C: 0.9
Yeast gene YGL046W
  The level of expressed mRNA in the presence of chemical substance/: 1.5
Yeast gene YGL062W
  The level of expressed mRNA in the presence of chemical substance/in the absence of chemical substance: 1.1
Yeast gene YGL067W
  The level of expressed mRNA in the presence of chemical substance/: 0.9
Yeast gene YGL098W
  The level of expressed mRNA in the presence of chemical substance/: 1.1
Yeast gene YGL104C
  The level of expressed mRNA in the presence of chemical substance/ (ratio to absence): 1.3
Yeast gene YGL114W
  The level of expressed mRNA in the presence of chemical substance/: 0.9
Yeast gene YGL115W, ratio of DNA chip fluorescence intensity to that without chemical substance
  The level of expressed mRNA in the presence of chemical substance/ (in its absence), gene YGL115W: 0.8
Yeast gene YGL115W
  The level of expressed mRNA in the presence of chemical substance/ (ratio to absence of chemical substance): 0.8
Yeast gene YGL117W
  The level of expressed mRNA in the presence of chemical substance/: 2.1
Yeast gene YGL146C
  The level of expressed mRNA in the presence of chemical substance/: 1.0
Yeast gene YGL156W
  The level of expressed mRNA in the presence of chemical substance/in the absence of chemical substance: 1.4
Yeast gene YGL157W
  The level of expressed mRNA in the presence of chemical substance/in the absence of chemical substance: 1.8
Yeast gene YGL158W
  The level of expressed mRNA in the presence of chemical substance/The level of expressed mRNA in the absence of chemical substance: 0.8
Yeast gene YGL167C
  The level of expressed mRNA in the presence of chemical substance/ (ratio to absence): 1.4
Yeast gene YGL184C
  The level of expressed mRNA in the presence of chemical substance/in the absence of chemical substance: 1.0
Yeast gene YGL187C, mitochondria-located protein genes, 2 h culture with chemical
  The level of expressed mRNA in the presence of chemical substance/ (ratio to absence), gene YGL187C: 0.9
Yeast gene YGL193C
  The level of expressed mRNA in the presence of chemical substance/: 1.1
Yeast gene YGL204C
  The level of expressed mRNA in the presence of chemical substance/: 0.9
Yeast gene YGL205W, ratio of DNA chip fluorescence intensity to that without chemical substance
  The level of expressed mRNA in the presence of chemical substance/ (in its absence), gene YGL205W: 3.9
Yeast gene YGL229C
  The level of expressed mRNA in the presence of chemical substance/The level of expressed mRNA in the absence of chemical substance: 1.1
Yeast gene YGL250W
  The level of expressed mRNA in the presence of chemical substance/: 1.2
Yeast gene YGL255W
  The level of expressed mRNA in the presence of chemical substance/ (ratio to absence): 0.6
Yeast gene YGL259W
  The level of expressed mRNA in the presence of chemical substance/: 0.9
Yeast gene YGR011W
  The level of expressed mRNA in the presence of chemical substance/: 0.9
Yeast gene YGR032W
  The level of expressed mRNA in the presence of chemical substance/in the absence of chemical substance: 3.2
Yeast gene YGR042W
  The level of expressed mRNA in the presence of chemical substance/: 1.3
Yeast gene YGR043C
  The level of expressed mRNA in the presence of chemical substance/in the absence of chemical substance: 1.6
Yeast gene YGR053C
  The level of expressed mRNA in the presence of chemical substance/: 1.5
Yeast gene YGR055W
  The level of expressed mRNA in the presence of chemical substance/ (ratio to absence): 0.7
Yeast gene YGR062C, energy system protein genes, 2 h culture with the chemical, ratio to control without chemical
  The level of expressed mRNA in the presence of chemical substance/ in its absence, gene YGR062C: 0.9
Yeast gene YGR062C, mitochondria-located protein genes, 2 h culture with chemical
  The level of expressed mRNA in the presence of chemical substance/ (ratio to absence), gene YGR062C: 0.9
Yeast gene YGR065C
  The level of expressed mRNA in the presence of chemical substance/ (ratio to absence): 0.7
Yeast gene YGR066C
  The level of expressed mRNA in the presence of chemical substance/: 1.0
Yeast gene YGR096W, ratio of DNA chip fluorescence intensity to that without chemical substance
  The level of expressed mRNA in the presence of chemical substance/ (in its absence), gene YGR096W: 0.8
